Tested on: 994946-033-R-J1-PDC complex spheroid viability
Experiment: Anticancer human tumor 994946-033-R-J1-PDC patient-derived melanoma cell line growth inhibition [POLQ]
Settings: for IC50: curve of first compound; for viability, T/C: stronger effect = lower value
Procedure, shortened: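 Patient-derived tumour cells were co-cultured with HUVEC and mesenchymal stem cells as multicellular spheroids at 37 °C. They were treated with POLQ inhibitors (novobiocin, ART-558, RP6685) alone or combined with other agents. Top concentrations were at or near clinical Cmax (otherwise 10 microM; SN-38 at 1 microM), decreasing in half-log steps.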

[1] = second compound 0.0316 µM, first compound 0.00316 µM
[2] = second compound 0.0316 µM, first compound 0.01 µM
[3] = second compound 0.0316 µM, first compound 0.0316 µM
[4] = second compound 0.0316 µM, first compound 0.1 µM
[5] = second compound 0.0316 µM, first compound 0.316 µM
[6] = second compound 0.0316 µM, first compound 1 µM
[7] = second compound 0.1 µM, first compound 0.00316 µM
[8] = second compound 0.1 µM, first compound 0.01 µM
[9] = second compound 0.1 µM, first compound 0.0316 µM
[10] = second compound 0.1 µM, first compound 0.1 µM
[11] = second compound 0.1 µM, first compound 0.316 µM
[12] = second compound 0.1 µM, first compound 1 µM
[13] = second compound 0.316 µM, first compound 0.00316 µM
[14] = second compound 0.316 µM, first compound 0.01 µM
[15] = second compound 0.316 µM, first compound 0.0316 µM
[16] = second compound 0.316 µM, first compound 0.1 µM
[17] = second compound 0.316 µM, first compound 0.316 µM
[18] = second compound 0.316 µM, first compound 1 µM
[19] = second compound 1 µM, first compound 0.00316 µM
[20] = second compound 1 µM, first compound 0.01 µM
[21] = second compound 1 µM, first compound 0.0316 µM
[22] = second compound 1 µM, first compound 0.1 µM
[23] = second compound 1 µM, first compound 0.316 µM
[24] = second compound 1 µM, first compound 1 µM
[25] = second compound 3.16 µM, first compound 0.00316 µM
[26] = second compound 3.16 µM, first compound 0.01 µM
[27] = second compound 3.16 µM, first compound 0.0316 µM
[28] = second compound 3.16 µM, first compound 0.1 µM
[29] = second compound 3.16 µM, first compound 0.316 µM
[30] = second compound 3.16 µM, first compound 1 µM
[31] = second compound 10 µM, first compound 0.00316 µM
[32] = second compound 10 µM, first compound 0.01 µM
[33] = second compound 10 µM, first compound 0.0316 µM
[34] = second compound 10 µM, first compound 0.1 µM
[35] = second compound 10 µM, first compound 0.316 µM
[36] = second compound 10 µM, first compound 1 µM
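Further: spheroids exposed to drugs for 7 days.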
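Wherever viability, T/C is given: 100% = DMSO vehicle treated spheroids.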

## C=CCn1c(=O)c2cnc(Nc3ccc(N4CCN(C)CC4)cc3)nc2n1-c1cccc(C(C)(C)O)n1 + Nc1ccc(C#CCN(C(=O)Cc2ncc(C(F)(F)F)cc2C(F)(F)F)c2ccc(F)cc2)nn1
Second compound 0.0316 µM
  IC50: 837 nM
Second compound 0.1 µM
  IC50: 444 nM
Second compound 0.316 µM
  IC50: 397 nM
Second compound 1 µM
  IC50: 780 nM
Second compound 3.16 µM
  IC50: 712 nM
Second compound 10 µM
  IC50: 643 nM
[1]
  viability, T/C: 70.3%
[2]
  viability, T/C: 122%
[3]
  viability, T/C: 80%
[4]
  viability, T/C: 95.6%
[5]
  viability, T/C: 91.8%
[6]
  viability, T/C: 42.4%
[7]
  viability, T/C: 81%
[8]
  viability, T/C: 107%
[9]
  viability, T/C: 97.8%
[10]
  viability, T/C: 103%
[11]
  viability, T/C: 59.2%
[12]
  viability, T/C: 28%
[13]
  viability, T/C: 101%
[14]
  viability, T/C: 124%
[15]
  viability, T/C: 105%
[16]
  viability, T/C: 81.7%
[17]
  viability, T/C: 60.2%
[18]
  viability, T/C: 20.6%
[19]
  viability, T/C: 123%
[20]
  viability, T/C: 100%
[21]
  viability, T/C: 147%
[22]
  viability, T/C: 109%
[23]
  viability, T/C: 100%
[24]
  viability, T/C: 36.2%
[25]
  viability, T/C: 109%
[26]
  viability, T/C: 105%
[27]
  viability, T/C: 120%
[28]
  viability, T/C: 85%
[29]
  viability, T/C: 84.9%
[30]
  viability, T/C: 36.4%
[31]
  viability, T/C: 106%
[32]
  viability, T/C: 82.5%
[33]
  viability, T/C: 94.8%
[34]
  viability, T/C: 95.4%
[35]
  viability, T/C: 67.4%
[36]
  viability, T/C: 39.1%

## COc1cccc2c1C(=O)c1c(O)c3c(c(O)c1C2=O)CC(O)(C(=O)CO)CC3OC1CC(N)C(O)C(C)O1 (stereo unspecified) + Nc1ccc(C#CCN(C(=O)Cc2ncc(C(F)(F)F)cc2C(F)(F)F)c2ccc(F)cc2)nn1
Second compound 0.0316 µM
  IC50: < 31.6 nM
Second compound 0.1 µM
  IC50: < 31.6 nM
Second compound 0.316 µM
  IC50: < 31.6 nM
Second compound 1 µM
  IC50: < 31.6 nM
Second compound 3.16 µM
  IC50: < 31.6 nM
Second compound 10 µM
  IC50: < 31.6 nM
[3]
  viability, T/C: 39.1%
[4]
  viability, T/C: 8.96%
[5]
  viability, T/C: 4.51%
[6]
  viability, T/C: 0.95%
Second compound 0.0316 µM, first compound 3.16 µM
  viability, T/C: 0.91%
Second compound 0.0316 µM, first compound 10 µM
  viability, T/C: 1.45%
[9]
  viability, T/C: 47.5%
[10]
  viability, T/C: 11.3%
[11]
  viability, T/C: 7.5%
[12]
  viability, T/C: 1.92%
Second compound 0.1 µM, first compound 3.16 µM
  viability, T/C: 1.44%
Second compound 0.1 µM, first compound 10 µM
  viability, T/C: 1.04%
[15]
  viability, T/C: 38%
[16]
  viability, T/C: 13.6%
[17]
  viability, T/C: 5.83%
[18]
  viability, T/C: 0.57%
Second compound 0.316 µM, first compound 3.16 µM
  viability, T/C: 1.8%
Second compound 0.316 µM, first compound 10 µM
  viability, T/C: 1.29%
[21]
  viability, T/C: 47.9%
[22]
  viability, T/C: 10%
[23]
  viability, T/C: 4.77%
[24]
  viability, T/C: 0.51%
Second compound 1 µM, first compound 3.16 µM
  viability, T/C: 1.35%
Second compound 1 µM, first compound 10 µM
  viability, T/C: 0.99%
[27]
  viability, T/C: 32.4%
[28]
  viability, T/C: 13.9%
[29]
  viability, T/C: 4.86%
[30]
  viability, T/C: 1.22%
Second compound 3.16 µM, first compound 3.16 µM
  viability, T/C: 1.11%
Second compound 3.16 µM, first compound 10 µM
  viability, T/C: 1%
[33]
  viability, T/C: 35.3%
[34]
  viability, T/C: 14.7%
[35]
  viability, T/C: 3.59%
[36]
  viability, T/C: 1.41%
Second compound 10 µM, first compound 3.16 µM
  viability, T/C: 0.94%
Second compound 10 µM, first compound 10 µM
  viability, T/C: 1.07%

## Cn1ncnc1[C@H]1c2n[nH]c(=O)c3cc(F)cc(c23)N[C@@H]1c1ccc(F)cc1 + Cc1cccc(N(C)C(=O)C2C(O)CCN2c2nc(C)cc(C(F)(F)F)c2C#N)c1
Second compound 0.0316 µM
  IC50: > 100 nM
Second compound 0.1 µM
  IC50: > 100 nM
Second compound 0.316 µM
  IC50: > 100 nM
Second compound 1 µM
  IC50: > 100 nM
Second compound 3.16 µM
  IC50: > 100 nM
Second compound 10 µM
  IC50: > 100 nM
Second compound 0.0316 µM, first compound 0.000316 µM
  viability, T/C: 105%
Second compound 0.0316 µM, first compound 0.001 µM
  viability, T/C: 85.7%
[1]
  viability, T/C: 86.8%
[2]
  viability, T/C: 77.2%
[3]
  viability, T/C: 87.7%
[4]
  viability, T/C: 75.1%
Second compound 0.1 µM, first compound 0.000316 µM
  viability, T/C: 81.5%
Second compound 0.1 µM, first compound 0.001 µM
  viability, T/C: 107%
[7]
  viability, T/C: 78.3%
[8]
  viability, T/C: 87.8%
[9]
  viability, T/C: 88.3%
[10]
  viability, T/C: 64.2%
Second compound 0.316 µM, first compound 0.000316 µM
  viability, T/C: 115%
Second compound 0.316 µM, first compound 0.001 µM
  viability, T/C: 118%
[13]
  viability, T/C: 77.8%
[14]
  viability, T/C: 99.2%
[15]
  viability, T/C: 74.8%
[16]
  viability, T/C: 56%
Second compound 1 µM, first compound 0.000316 µM
  viability, T/C: 134%
Second compound 1 µM, first compound 0.001 µM
  viability, T/C: 91%
[19]
  viability, T/C: 95.9%
[20]
  viability, T/C: 80.2%
[21]
  viability, T/C: 76.9%
[22]
  viability, T/C: 66.9%
Second compound 3.16 µM, first compound 0.000316 µM
  viability, T/C: 111%
Second compound 3.16 µM, first compound 0.001 µM
  viability, T/C: 111%
[25]
  viability, T/C: 98%
[26]
  viability, T/C: 76%
[27]
  viability, T/C: 87.3%
[28]
  viability, T/C: 78.7%
Second compound 10 µM, first compound 0.000316 µM
  viability, T/C: 109%
Second compound 10 µM, first compound 0.001 µM
  viability, T/C: 65%
[31]
  viability, T/C: 95.7%
[32]
  viability, T/C: 106%
[33]
  viability, T/C: 74.8%
[34]
  viability, T/C: 69.3%

From PubChem BioAssay AID1963827 (Molecular Pharmacology Branch, DTP, NCI, 2024)
